# Marks after values point to notes of the source that are not given here.
# What was measured:
# Assay type in all cases: in vivo, rat
# Male Sprague-Dawley rats [1] = test: Palatable food intake following drug injections in binge-eating rats (Example 2); conditions: for Effect on palatable food (fat) intake, in words / Effect on palatable food (sugar) intake, in words / Effect on palatable food (sugar-fat) intake, in words: one-way ANOVA over saline, low and high dose
# Source text: (§1) Male Sprague-Dawley rats, 250-300 g at the onset of the experiment, were obtained from Taconic Farms (Germantown, N.Y., USA). Rats were housed individually on a 12-h reversed light/dark cycle and given 1 wk to acclimate before diet training began.
# (§2) The rats were divided into groups (n=10/group) matched for body weight and assigned to one of the following dietary conditions: (1) Binge Sugar, (2) Binge Fat or (3) Binge Sugar-Fat. All rats received palatable diets and standard rodent chow (LabDiet #5001, PMI Nutrition International, Richmond, Ind., USA; 10% fat, 20% protein, 70% carbohydrate, 3.02 kcal/g) for 12 h/day, starting 4 h after the onset of the dark cycle. Water was available ad libitum.
# (§3) All palatable foods were mixed in the laboratory. The Binge Sugar group had access to a 10% (w/v) sucrose solution (Domino® Granulated Pure Cane Sugar, dissolved in tap water, 0.4 kcal/mL), the Binge Fat group had access to a 35% (w/v) fat emulsion (3.1 kcal/mL) and the Binge Sugar-Fat group had access to a 10% (w/v) sugar solution and 35% (w/v) fat emulsion (3.5 kcal/mL). Both emulsions were made with Wesson® Pure Vegetable Oil in tap water and 0.6% (w/v) Emplex, a commercially available emulsifier (American Ingredients Company, Kansas City, Mo., USA). Palatable food intakes were recorded daily. Chow intake was recorded weekly. Body weights were taken at the beginning and end of the 21-day diet period.
# (§4) After 21 days on these diets, drug testing began. During testing, diet regimens were maintained. Approximately 3.5 h into the dark cycle, animals were weighed and intraperitoneal (i.p.) injections of drug were given (according to the schedule below). 30 min later (4 h into the dark cycle) palatable food and chow were made available to the rats. For the first 3 days, rats were acclimated to handling and daily vehicle injections (0.9% saline, Hospira, Lake Forest, Ill., USA, i.p. 1 mL/kg). For days 4-16 of drug testing, either vehicle or drug was alternatively administered, starting with drug on day 4. […] Intake of palatable food and chow was measured hourly after injection for 4 h and again at the end of the 12-h access period.
# (§5) Palatable food and standard chow intakes following saline injections between days 4-16 were averaged. All data were analyzed using one-way ANOVAs with post hoc Multiple Comparisons, when appropriate. In Tables 4-7, values having the same letter superscript are statistically different from one another.
# Male Sprague-Dawley rats [2] = test: Standard chow intake following drug injections in binge-eating rats (Example 2); conditions: for Effect on standard chow intake, in words: one-way ANOVA over saline, low and high dose
# Source text: as §1, §2, §3, §4, §5
# Male Sprague-Dawley rats [3] = test: Total caloric intake following drug injections in binge-eating rats (Example 2); conditions: for Effect on total caloric intake, in words: one-way ANOVA over saline, low and high dose
# Source text: as §1, §2, §3, §4, §5
# rats = test: Binge eating rats, palatable food and chow intake (Example 1, FIGS. 1-5); conditions: drug alone, i.p., figure legends
# Description: Baclofen (at 1.0 and 1.8 mg/kg, administered i.p.)
# Baclofen+naltrexone (mixed low and mixed high)
# 1. Binge Sugar (10% sucrose solution, w/v)
# 2. Binge Fat (35% oil emulsion, w/v)
# 3. Binge Sugar/Fat (10% sucrose, 35% oil emulsion, w/v)
# Groups of animals (rats) were maintained on their diets for 3 weeks to establish stable binge eating behavior. After this period of time, the rats were administered three days of daily i.p. injections of saline (to acclimate to the injection procedure), and sugar/chow intake was measured after the first hour of access and then hourly for the next 3 hours, as well as at the end of the 12-h access period. After this three-day period, rats were given baclofen+naloxone, and measurements taken as described above. Other dosage amounts of baclofen and naloxone were tested, as were the effects of these compounds alone (with measurements being performed as described above). Vehicle injections were performed between the various tests in order to allow for suitable clearance of compounds from the animals. […] Thus, the treatment appears ideally suited for food addicts, hedonic overeaters and changes food choice but not appetite.
# [4] = Binge Fat group, 1 h, high dose (naltrexone 1.0 mg/kg, baclofen 1.8 mg/kg, or both, i.p.)
# [5] = Binge Fat group, 1 h, low dose (naltrexone 0.1 mg/kg, baclofen 1.0 mg/kg, or both, i.p.)
# [6] = Binge Fat group, 12 h, high dose (naltrexone 1.0 mg/kg, baclofen 1.8 mg/kg, or both, i.p.)
# [7] = Binge Fat group, 12 h, low dose (naltrexone 0.1 mg/kg, baclofen 1.0 mg/kg, or both, i.p.)
# [8] = Binge Sugar group, 1 h, high dose (naltrexone 1.0 mg/kg, baclofen 1.8 mg/kg, or both, i.p.)
# [9] = Binge Sugar group, 1 h, low dose (naltrexone 0.1 mg/kg, baclofen 1.0 mg/kg, or both, i.p.)
# [10] = Binge Sugar group, 12 h, high dose (naltrexone 1.0 mg/kg, baclofen 1.8 mg/kg, or both, i.p.)
# [11] = Binge Sugar group, 12 h, low dose (naltrexone 0.1 mg/kg, baclofen 1.0 mg/kg, or both, i.p.)
# [12] = Binge Sugar-Fat group, 1 h, high dose (naltrexone 1.0 mg/kg, baclofen 1.8 mg/kg, or both, i.p.)
# [13] = Binge Sugar-Fat group, 1 h, low dose (naltrexone 0.1 mg/kg, baclofen 1.0 mg/kg, or both, i.p.)
# [14] = Binge Sugar-Fat group, 12 h, high dose (naltrexone 1.0 mg/kg, baclofen 1.8 mg/kg, or both, i.p.)
# [15] = Binge Sugar-Fat group, 12 h, low dose (naltrexone 0.1 mg/kg, baclofen 1.0 mg/kg, or both, i.p.)
compound,measurement,setting,value
"NC[C@H](CC(=O)O)c1ccc(Cl)cc1 [Baclofen, R-baclofen]",1-H Palatable Food Intake (Kcal),Male Sprague-Dawley rats [1]; [4],"6.5 ± 2.0^c,d Kcal"
same,"Palatable food intake as a percent of intake after saline injections, 1-H Intake (%)",Male Sprague-Dawley rats [1]; [4],38%
same,1-H Palatable Food Intake (Kcal),Male Sprague-Dawley rats [1]; [5],17.9 ± 2.4^d Kcal
same,"Palatable food intake as a percent of intake after saline injections, 1-H Intake (%)",Male Sprague-Dawley rats [1]; [5],106%
same,"Effect on palatable food (fat) intake, in words","Male Sprague-Dawley rats [1]; Binge Fat group, 1 h",decreased
same,12-H Palatable Food Intake (Kcal),Male Sprague-Dawley rats [1]; [6],"32.6 ± 4.9^e,f Kcal"
same,"Palatable food intake as a percent of intake after saline injections, 12-H Intake (%)",Male Sprague-Dawley rats [1]; [6],56%
same,12-H Palatable Food Intake (Kcal),Male Sprague-Dawley rats [1]; [7],54.5 ± 4.5^f Kcal
same,"Palatable food intake as a percent of intake after saline injections, 12-H Intake (%)",Male Sprague-Dawley rats [1]; [7],93%
same,"Effect on palatable food (fat) intake, in words","Male Sprague-Dawley rats [1]; Binge Fat group, 12 h",decreased
same,1-H Palatable Food Intake,Male Sprague-Dawley rats [1]; [8],2.7 ± 0.5 kcal
same,"Palatable food intake as a percent of intake after saline injections, 1-H Intake (%)",Male Sprague-Dawley rats [1]; [8],96%
same,1-H Palatable Food Intake,Male Sprague-Dawley rats [1]; [9],3.6 ± 0.8 kcal
same,"Palatable food intake as a percent of intake after saline injections, 1-H Intake (%)",Male Sprague-Dawley rats [1]; [9],131%
same,"Effect on palatable food (sugar) intake, in words","Male Sprague-Dawley rats [1]; Binge Sugar group, 1 h",no effect
same,12-H Palatable Food Intake (Kcal),Male Sprague-Dawley rats [1]; [10],11.4 ± 2.4^ Kcal
same,"Palatable food intake as a percent of intake after saline injections, 12-H Intake (%)",Male Sprague-Dawley rats [1]; [10],90%
same,12-H Palatable Food Intake,Male Sprague-Dawley rats [1]; [11],11.3 ± 2.5 kcal
same,"Palatable food intake as a percent of intake after saline injections, 12-H Intake (%)",Male Sprague-Dawley rats [1]; [11],88%
same,"Effect on palatable food (sugar) intake, in words","Male Sprague-Dawley rats [1]; Binge Sugar group, 12 h",no effect
same,1-H Palatable Food Intake (Kcal),Male Sprague-Dawley rats [1]; [12],"8.6 ± 1.6^j,k Kcal"
same,"Palatable food intake as a percent of intake after saline injections, 1-H Intake (%)",Male Sprague-Dawley rats [1]; [12],37%
same,1-H Palatable Food Intake (Kcal),Male Sprague-Dawley rats [1]; [13],23.5 ± 3.9^j Kcal
same,"Palatable food intake as a percent of intake after saline injections, 1-H Intake (%)",Male Sprague-Dawley rats [1]; [13],100%
same,"Effect on palatable food (sugar-fat) intake, in words","Male Sprague-Dawley rats [1]; Binge Sugar-Fat group, 1 h",significantly decreased
same,12-H Palatable Food Intake (Kcal),Male Sprague-Dawley rats [1]; [14],57.4 ± 4.1^p Kcal
same,"Palatable food intake as a percent of intake after saline injections, 12-H Intake (%)",Male Sprague-Dawley rats [1]; [14],75%
same,12-H Palatable Food Intake,Male Sprague-Dawley rats [1]; [15],64.9 ± 6.6 kcal
same,"Palatable food intake as a percent of intake after saline injections, 12-H Intake (%)",Male Sprague-Dawley rats [1]; [15],85%
same,"Effect on palatable food (sugar-fat) intake, in words","Male Sprague-Dawley rats [1]; Binge Sugar-Fat group, 12 h",suppressed intake
same,1-H Chow Intake,Male Sprague-Dawley rats [2]; [4],10.6 ± 1.0 kcal
same,1-H Chow Intake,Male Sprague-Dawley rats [2]; [5],12.2 ± 1.7 kcal
same,12-H Chow Intake,Male Sprague-Dawley rats [2]; [6],35.0 ± 5.0 kcal
same,12-H Chow Intake,Male Sprague-Dawley rats [2]; [7],34.1 ± 3.3 kcal
same,1-H Chow Intake,Male Sprague-Dawley rats [2]; [8],19.3 ± 3.4 kcal
same,1-H Chow Intake,Male Sprague-Dawley rats [2]; [9],23.0 ± 1.5 kcal
same,12-H Chow Intake,Male Sprague-Dawley rats [2]; [10],62.5 ± 3.8 kcal
same,12-H Chow Intake (Kcal),Male Sprague-Dawley rats [2]; [11],73.5 ± 4.5^c Kcal
same,1-H Chow Intake (Kcal),Male Sprague-Dawley rats [2]; [12],6.3 ± 1.0^i Kcal
same,1-H Chow Intake (Kcal),Male Sprague-Dawley rats [2]; [13],11.3 ± 1.7^i Kcal
same,"Effect on standard chow intake, in words","Male Sprague-Dawley rats [2]; Binge Sugar-Fat group, 1 h",less chow intake at the high dose compared to the low dose
same,12-H Chow Intake,Male Sprague-Dawley rats [2]; [14],24.1 ± 3.1 kcal
same,12-H Chow Intake,Male Sprague-Dawley rats [2]; [15],24.6 ± 2.2 kcal
same,"Effect on standard chow intake, in words","Male Sprague-Dawley rats [2]; Fat group, 1 h",no effect
same,"Effect on standard chow intake, in words","Male Sprague-Dawley rats [2]; Fat group, 12 h",no effect
same,"Effect on standard chow intake, in words","Male Sprague-Dawley rats [2]; Sugar group, 1 h",no effect
same,"Effect on standard chow intake, in words","Male Sprague-Dawley rats [2]; Sugar group, 12 h",stimulated chow intake
same,1-H Total Caloric Intake (Kcal),Male Sprague-Dawley rats [3]; [4],"17.0 ± 3.0^e,f Kcal"
same,1-H Total Caloric Intake (Kcal),Male Sprague-Dawley rats [3]; [5],30.1 ± 4.1^f Kcal
same,12-H Total Caloric Intake (Kcal),Male Sprague-Dawley rats [3]; [6],67.7 ± 9.9^g Kcal
same,12-H Total Caloric Intake,Male Sprague-Dawley rats [3]; [7],88.6 ± 7.8 kcal
same,1-H Total Caloric Intake,Male Sprague-Dawley rats [3]; [8],21.9 ± 4.4 kcal
same,1-H Total Caloric Intake,Male Sprague-Dawley rats [3]; [9],26.7 ± 2.3 kcal
same,12-H Total Caloric Intake,Male Sprague-Dawley rats [3]; [10],74.0 ± 6.3 kcal
same,12-H Total Caloric Intake,Male Sprague-Dawley rats [3]; [11],84.8 ± 7.0 kcal
same,1-H Total Caloric Intake (Kcal),Male Sprague-Dawley rats [3]; [12],"15.0 ± 2.6^k,m Kcal"
same,1-H Total Caloric Intake (Kcal),Male Sprague-Dawley rats [3]; [13],34.8 ± 5.6^m Kcal
same,12-H Total Caloric Intake,Male Sprague-Dawley rats [3]; [14],81.4 ± 7.3 kcal
same,12-H Total Caloric Intake,Male Sprague-Dawley rats [3]; [15],89.5 ± 8.8 kcal
same,"Effect on total caloric intake, in words","Male Sprague-Dawley rats [3]; Fat group, 1 h",significantly reduced
same,"Effect on total caloric intake, in words","Male Sprague-Dawley rats [3]; Fat group, 12 h",significantly reduced
same,"Effect on total caloric intake, in words","Male Sprague-Dawley rats [3]; Sugar group, 1 h",no effect
same,"Effect on total caloric intake, in words","Male Sprague-Dawley rats [3]; Sugar group, 12 h",no effect
same,"Effect on total caloric intake, in words","Male Sprague-Dawley rats [3]; Sugar-Fat group, 1 h",reduced
same,"Effect on total caloric intake, in words","Male Sprague-Dawley rats [3]; Sugar-Fat group, 12 h",not apparent
same,Effect on intake of oil-containing palatable foods,"rats; oil containing groups (Binge Fat, Binge Sugar/Fat)",reduces intake
same,Effect on binge eating of sugar,rats; sugar-binging rats,no effect

# From US9610285B2, “Compositions for controlling food intake and uses therefor” (UNIVERSITY OF FLORIDA RESEARCH FOUNDATION, INCORPORATED, priority 2011, dated 2017)
